# Experimental data as given in PMC11356900, “Synthesis, Structural Properties and Biological Activities of Novel Hydrazones of 2-, 3-, 4-Iodobenzoic Acid” (Molecules, 2024).
# How the values were obtained:
# [1] = test system: Staphylococcus aureus ATCC 25923; assay: Broth microdilution MIC/MBC; conditions: Staphylococcus aureus, ATCC25923
# Gram-negative bacteria = assay: Broth microdilution, summary over reference Gram-negative bacteria; type: cell-based; conditions: for MIC: range over the reference Gram-negative bacteria; for antibacterial activity in words: reference Gram-negative bacteria
# Excerpt: Procedures of in vitro antimicrobial assays are described in Supplementary Materials.
# 2. Microbiology – in vitro antimicrobial activity assays […]
# using the broth microdilution method according to the European Committee on Antimicrobial Susceptibility Testing (EUCAST) and Clinical and Laboratory Standards Institute guidelines against a panel of reference and clinical or saprophytic strains of mi croorganisms, including the Gram-positive bacteria: Staphylococcus aureus ATCC 43300 (Methi-cillin Resistant S. aureus – MRSA), Staphylococcus aureus ATCC 29213 (Methicillin Susceptible S. aureus – MSSA), Staph-ylococcus epidermidis ATCC 12228, Micrococcus luteus ATCC 10240, Bacillus subtilis ATCC 6633 and Bacillus cereus ATCC 10876), Gram-negative bacteria: Bordetella bronchiseptica ATCC 4617, Escherichia coli ATCC 25922, Klebsiella pneumoniae ATCC 13883, Proteus mirabilis ATCC 12453, Salmonella typhimurium ATCC 14028 and Pseudomonas aeruginosa ATCC 9027, and fungi belonging to yeasts: Candida albicans ATCC 10231, Candida albicans ATCC 2091, Candida parapsilosis ATCC 22019, Candida glabrata ATCC 90030 and Candida krusei ATCC 14243. The microorganisms belonging to ATCC originated from American Type Culture Collection, routinely used for the evaluation of antimicrobials. All the used microbial cultures were first subcultured on nutrient agar or Sabouraud agar at 35°C for 18-24 h or 30°C for 24-48 h for bacteria […]
# The surface of Mueller-Hinton agar (for bacteria) and RPMI 1640 with MOPS (for fungi) were inoculated with the suspensions of bacterial or fungal species. Microbial suspensions were prepared in sterile saline with an optical density of McFarland standard scale 0.5. The samples containing the compounds were dissolved in dimethyl sulfoxide (DMSO).
# Furthermore, the bacterial and fungal suspensions put onto the Petri dishes with solid media containing 2 mg/mL of the tested compounds followed were incubated at 37°C for 24h and 30°C for 48h for bacteria and fungi, respectively. […]
# Subsequently, MIC (Minimal Inhibitory Concentration) of the compounds was examined by the microdilution broth method, using their two-fold dilutions in Mueller-Hinton broth (for bacteria) and RPMI 1640 broth with MOPS (for fungi) prepared in the 96-well polystyrene plates. […] After incubation, the MIC was assessed spectrophotometrically as the lowest concentration of the […]
# Appropriate DMSO, growth and sterile controls were carried out. […] The MBC/MFC was determined by removing the culture used for the MIC determination from each well and spotted onto the appro-priate agar medium. […] The lowest com-pounds concentration with no visible growth observed was assessed as a bactericidal/fungicidal concentration. […]
# L929 cell line = assay: MTT cytotoxicity assay; type: cell-based, mouse; conditions: for cytotoxicity: L929, 24 h culture, tested doses 10–100 µM
# Description: Among all the newly synthesized compounds, four compounds designated as: 14, 20, 21 and 27 were selected for further testing of their cytotoxic properties at the doses of 10, 25, 50, 75 and 100 µM. The cytotoxic properties of the above compounds were tested on the cancer cell lines, i.e., A549 (ECACC 86012804) (non-small-cell lung cancer), T47D (ECACC 85102201) (breast cancer), HeLa (ATCC® CCL-2™) (cervical cancer) and normal line L929 (NCTC clone 929, ATCC® CCL-1™) (mouse fibroblasts) using the MTT test for 24- and 48 h cultures.
# A549 (ECACC 86012804) (non-small-cell lung cancer) and T47D (ECACC 85102201) (breast cancer) were obtained from ECACC and propagated in Dulbecco’s Minimal Essential Medium, supplemented with 2 mM of glutamine, antibiotics ([…] streptomycin, 1% of 100 U/L penicillin) and 10% Fetal Bovine Serum. HeLa (ATCC® CCL-2™) (cervical cancer) and L929 (NCTC clone 929, ATCC® CCL-1™) (mouse fibroblasts) cell lines were obtained from ATCC and propagated in the Eagle Minimal Essential Medium supplemented with antibiotics ([…] streptomycin, 1% of 100 U/L penicillin) and with 10% and 5% FBS, respectively. The cell line was routinely grown in 75 cm^2 tissue culture flasks and kept in an incubator (humidified atmosphere of 5% CO2 at 37 °C). All examined cell lines were tested against mycoplasma contamination with microbiological assays.
# The cell viability of tested compounds (14, 20, 21 and 27) was assessed by the MTT assay. In brief, the exponentially growing cells were plated in 100 μL/well in 96-well plates. After 24 h culturing, the cells were treated with different concentrations of compounds (range 10–100 μM). After 24 and 48 h of incubation, 10 μL of 5 mg/mL MTT was added to each well and the plates were incubated at 37 °C for additional 4 h. The medium was subsequently removed, the purple-colored precipitates of formazan were dissolved in 100 μL of DMSO. The color absorbance was recorded at 570 nm using a BioTek model EPOCH ELISA plate reader. All experiments were performed in triplicate. The absorbance values were in the range of linearity of the Lambert–Beer law.
Structure (SMILES),MBC [1],MIC [1],"cell proliferation (L929 cell line; L929, 24h, 10 µM, Repeat No 1)","cell proliferation (L929 cell line; L929, 24h, 10 µM, Repeat No 2)","cell proliferation (L929 cell line; L929, 24h, 25 µM, Repeat No 1)","cell proliferation (L929 cell line; L929, 24h, 25 µM, Repeat No 2)","cell proliferation (L929 cell line; L929, 24h, 50 µM, Repeat No 1)","cell proliferation (L929 cell line; L929, 24h, 50 µM, Repeat No 2)","cell proliferation (L929 cell line; L929, 24h, 75 µM, Repeat No 1)","cell proliferation (L929 cell line; L929, 24h, 75 µM, Repeat No 2)","cell proliferation (L929 cell line; L929, 24h, 100 µM, Repeat No 1)","cell proliferation (L929 cell line; L929, 24h, 100 µM, Repeat No 2)",cytotoxicity (L929 cell line),"cell proliferation (L929 cell line; L929, 48h, 10 µM, Repeat No 1)","cell proliferation (L929 cell line; L929, 48h, 10 µM, Repeat No 2)","cell proliferation (L929 cell line; L929, 48h, 25 µM, Repeat No 1)","cell proliferation (L929 cell line; L929, 48h, 25 µM, Repeat No 2)","cell proliferation (L929 cell line; L929, 48h, 50 µM, Repeat No 1)","cell proliferation (L929 cell line; L929, 48h, 50 µM, Repeat No 2)","cell proliferation (L929 cell line; L929, 48h, 75 µM, Repeat No 1)",further results
"O=C(N/N=C/c1cc(Cl)cc(I)c1O)c1cccc(I)c1 [Compound 20, N-[(5-chloro-2-hydroxy-3-iodophenyl)methylidene]-3-iodobenzohydrazide]",3.91 µg/mL,1.95 µg/mL,99%,104%,89%,95%,87%,112%,103%,96%,86%,94%,approximately 20%,91%,102%,88%,93%,94%,99%,94%,"MIC (Gram-negative bacteria): 500 to 1000 µg/mL; antibacterial activity in words (Gram-negative bacteria): mild or moderate; cell proliferation (L929 cell line; L929, 48h, 75 µM, Repeat No 2): 99%; cell proliferation (L929 cell line; L929, 48h, 100 µM, Repeat No 1): 87%; cell proliferation (L929 cell line; L929, 48h, 100 µM, Repeat No 2): 84%"
"O=C(N/N=C/c1cc(Cl)cc(I)c1O)c1ccc(I)cc1 [Compound 27, N-[(5-chloro-2-hydroxy-3-iodophenyl)methylidene]-4-iodobenzohydrazide]",250 µg/mL,62.5 µg/mL,101%,89%,96%,92%,95%,81%,103%,107%,92%,91%,approximately 20%,92%,89%,95%,99%,92%,91%,99%,"MIC (Gram-negative bacteria): 500 µg/mL; antibacterial activity in words (Gram-negative bacteria): moderate (moderate bioactivity with MIC from 126 to 500 µg/mL); cell proliferation (L929 cell line; L929, 48h, 75 µM, Repeat No 2): 92%; cell proliferation (L929 cell line; L929, 48h, 100 µM, Repeat No 1): 87%; cell proliferation (L929 cell line; L929, 48h, 100 µM, Repeat No 2): 92%"
"O=C(N/N=C/c1cc(Br)cc(Br)c1O)c1cccc(I)c1 [Compound 21, N-[(3,5-dibromo-2-hydroxyphenyl)methylidene]-3-iodobenzohydrazide]",31.2 µg/mL,7.81 µg/mL,96%,102%,101%,97%,100%,106%,118%,109%,89%,96%,approximately 20%,94%,98%,89%,97%,89%,88%,104%,"cell proliferation (L929 cell line; L929, 48h, 75 µM, Repeat No 2): 96%; cell proliferation (L929 cell line; L929, 48h, 100 µM, Repeat No 1): 89%; cell proliferation (L929 cell line; L929, 48h, 100 µM, Repeat No 2): 84%"
